Measured values taken from US10442807B2, “Aryl substituted bicyclic compounds as herbicides” (FMC Corporation, priority 2015, dated 2019).

What was measured:
Format in all cases: in vivo
[1] = tested on: barnyardgrass (Echinochloa crus-galli); test: Test A preemergence, directed soil spray, visual injury rating; details: approx. 10 d, 0 = no effect, 100 = complete control
Description: (§1) Seeds of plant species selected from barnyardgrass (Echinochloa crus-galli), kochia (Kochia scoparia), ragweed (common ragweed, Ambrosia elation), ryegrass, Italian (Italian ryegrass, Lolium multiflorum), foxtail, giant (giant foxtail, Setaria faberii), and pigweed (Amaranthus retroflexus), were planted into a blend of loam soil and sand and treated preemergence with a directed soil spray using test chemicals formulated in a non-phytotoxic solvent mixture which included a surfactant. At the same time, plants selected from these weed species and also blackgrass (Alopecurus myosuroides), galium (catchweed bedstraw, Galium aparine), wheat (Triticum aestivum), and corn (Zea mays) were planted in pots containing the same blend of loam soil and sand and treated with postemergence applications of test chemicals formulated in the same manner. Plants ranged in height from 2 to 10 cm and were in the one- to two-leaf stage for the postemergence treatment. Treated plants and untreated controls were maintained in a greenhouse for approximately 10 d, after which time all treated plants were compared to untreated controls and visually evaluated for injury. Plant response ratings, summarized in Table A, are based on a 0 to 100 scale where 0 is no effect and 100 is complete control. A dash (-) response means no test result.

[2] = tested on: foxtail, giant (giant foxtail, Setaria faberii); test: as above; details: approx. 10 d, 0 = no effect, 100 = complete control
Description: as §1

[3] = tested on: kochia (Kochia scoparia); test: as above; details: approx. 10 d, 0 = no effect, 100 = complete control
Description: as §1

[4] = tested on: pigweed (Amaranthus retroflexus); test: as above; details: approx. 10 d, 0 = no effect, 100 = complete control
Description: as §1

[5] = tested on: ragweed (common ragweed, Ambrosia elation); test: as above; details: approx. 10 d, 0 = no effect, 100 = complete control
Description: as §1

[6] = tested on: ryegrass, Italian (Italian ryegrass, Lolium multiflorum); test: as above; details: approx. 10 d, 0 = no effect, 100 = complete control
Description: as §1

[7] = tested on: barnyardgrass (Echinochloa crus-galli); test: Test A postemergence application, visual injury rating; details: approx. 10 d, 0 = no effect, 100 = complete control
Description: as §1

[8] = tested on: blackgrass (Alopecurus myosuroides); test: as above; details: approx. 10 d, 0 = no effect, 100 = complete control
Description: as §1

[9] = tested on: corn (Zea mays); test: as above; details: approx. 10 d, 0 = no effect, 100 = complete control
Description: as §1

[10] = tested on: foxtail, giant (giant foxtail, Setaria faberii); test: as above; details: approx. 10 d, 0 = no effect, 100 = complete control
Description: as §1

[11] = tested on: galium (catchweed bedstraw, Galium aparine); test: as above; details: approx. 10 d, 0 = no effect, 100 = complete control
Description: as §1

[12] = tested on: kochia (Kochia scoparia); test: as above; details: approx. 10 d, 0 = no effect, 100 = complete control
Description: as §1

[13] = tested on: pigweed (Amaranthus retroflexus); test: as above; details: approx. 10 d, 0 = no effect, 100 = complete control
Description: as §1

[14] = tested on: ragweed (common ragweed, Ambrosia elation); test: as above; details: approx. 10 d, 0 = no effect, 100 = complete control
Description: as §1

[15] = tested on: ryegrass, Italian (Italian ryegrass, Lolium multiflorum); test: as above; details: approx. 10 d, 0 = no effect, 100 = complete control
Description: as §1

[16] = tested on: wheat (Triticum aestivum); test: as above; details: approx. 10 d, 0 = no effect, 100 = complete control
Description: as §1

[17] = tested on: barnyardgrass (Echinochloa crus-galli); test: Test B flooded paddy test, visual plant response rating; details: 250 g ai/ha; applied to paddy water at 2-leaf stage; rated after 13 to 15 days; scale 0 to 100, 0 is no effect, 100 is complete control
Description: (§2) At time of treatment, test pots were flooded to 3 cm above the soil surface, treated by application of test compounds directly to the paddy water, and then maintained at that water depth for the duration of the test. Treated plants and controls were maintained in a greenhouse for 13 to 15 days, after which time all species were compared to controls and visually evaluated. Plant response ratings, summarized in Table B, are based on a scale of 0 to 100 where 0 is no effect and 100 is complete control. A dash (-) response means no test result.

[18] = tested on: ducksalad (Heteranthera limosa); test: as above; details: 250 g ai/ha; applied to paddy water at 2-leaf stage; rated after 13 to 15 days; scale 0 to 100, 0 is no effect, 100 is complete control
Description: as §2

[19] = tested on: rice (Oryza sativa); test: as above; details: 250 g ai/ha; applied to paddy water at 2-leaf stage; rated after 13 to 15 days; scale 0 to 100, 0 is no effect, 100 is complete control
Description: as §2

[20] = tested on: sedge, umbrella (small-flower umbrella sedge, Cyperus difformis); test: as above; details: 250 g ai/ha; applied to paddy water at 2-leaf stage; rated after 13 to 15 days; scale 0 to 100, 0 is no effect, 100 is complete control
Description: as §2

Row | SMILES | Barnyardgrass plant response rating (0 to 100 scale) ([1]; 125 g ai/ha) | Barnyardgrass plant response rating (0 to 100 scale) ([1]; 500 g ai/ha) | Foxtail, Giant plant response rating (0 to 100 scale) ([2]; 125 g ai/ha) | Foxtail, Giant plant response rating (0 to 100 scale) ([2]; 500 g ai/ha) | Kochia plant response rating (0 to 100 scale) ([3]; 125 g ai/ha) | Pigweed plant response rating (0 to 100 scale) ([4]; 125 g ai/ha) | Pigweed plant response rating (0 to 100 scale) ([4]; 500 g ai/ha) | Ragweed plant response rating (0 to 100 scale) ([5]; 125 g ai/ha) | Ragweed plant response rating (0 to 100 scale) ([5]; 500 g ai/ha) | Ryegrass, Italian plant response rating (0 to 100 scale) ([6]; 125 g ai/ha) | Ryegrass, Italian plant response rating (0 to 100 scale) ([6]; 500 g ai/ha) | Barnyardgrass plant response rating (0 to 100 scale) ([7]; 125 g ai/ha) | Barnyardgrass plant response rating (0 to 100 scale) ([7]; 500 g ai/ha) | Blackgrass plant response rating (0 to 100 scale) ([8]; 125 g ai/ha) | Blackgrass plant response rating (0 to 100 scale) ([8]; 500 g ai/ha) | Corn plant response rating (0 to 100 scale) ([9]; 125 g ai/ha) | Corn plant response rating (0 to 100 scale) ([9]; 500 g ai/ha) | Foxtail, Giant plant response rating (0 to 100 scale) ([10]; 125 g ai/ha) | Foxtail, Giant plant response rating (0 to 100 scale) ([10]; 500 g ai/ha) | Galium plant response rating (0 to 100 scale) ([11]; 125 g ai/ha) | also measured
1 | O=C(Nc1cccc(F)c1F)C1c2nncn2CC1c1ccc(Cl)cc1 (centres unmarked) [Compound 7] | 30 | 70 | 40 | 80 | 0 | 0 | 20 | 0 | 50 | 0 | 0 | 20 | 70 | 0 | 0 | 20 | 30 | 20 | 70 | 40 | Kochia plant response rating (0 to 100 scale) ([3]; 500 g ai/ha): 40; Galium plant response rating (0 to 100 scale) ([11]; 500 g ai/ha): 50; Kochia plant response rating (0 to 100 scale) ([12]; 125 g ai/ha): 0; Kochia plant response rating (0 to 100 scale) ([12]; 500 g ai/ha): 40; Pigweed plant response rating (0 to 100 scale) ([13]; 125 g ai/ha): 0; Pigweed plant response rating (0 to 100 scale) ([13]; 500 g ai/ha): 50; Ragweed plant response rating (0 to 100 scale) ([14]; 125 g ai/ha): 0; Ragweed plant response rating (0 to 100 scale) ([14]; 500 g ai/ha): 60; Ryegrass, Italian plant response rating (0 to 100 scale) ([15]; 125 g ai/ha): 0; Ryegrass, Italian plant response rating (0 to 100 scale) ([15]; 500 g ai/ha): 20; Wheat plant response rating (0 to 100 scale) ([16]; 125 g ai/ha): 0; Wheat plant response rating (0 to 100 scale) ([16]; 500 g ai/ha): 20; Plant response rating, Flood, Barnyardgrass [17]: 0; Plant response rating, Flood, Ducksalad [18]: 50; Plant response rating, Flood, Rice [19]: 15; Plant response rating, Flood, Sedge, Umbrella [20]: 0
2 | CCc1nnc2n1CC(c1ccc(C(F)(F)F)cc1)C2C(=O)Nc1cccc(F)c1F (centres unmarked) [Compound 8, N-(2,3-difluorophenyl)-3-ethyl-6,7-dihydro-6-[4-(trifluoromethyl)phenyl]-5H-pyrrolo[2,1-c]-1,2,4-triazole-7-carboxamide] | 30 | 70 | 30 | 90 | 0 | 20 | 50 | 0 | 0 | 0 | 0 | 20 | 50 | 0 | 0 | 0 | 0 | 20 | 60 | 30 | Galium plant response rating (0 to 100 scale) ([11]; 500 g ai/ha): 50; Kochia plant response rating (0 to 100 scale) ([12]; 125 g ai/ha): 0; Kochia plant response rating (0 to 100 scale) ([12]; 500 g ai/ha): 40; Pigweed plant response rating (0 to 100 scale) ([13]; 125 g ai/ha): 20; Pigweed plant response rating (0 to 100 scale) ([13]; 500 g ai/ha): 60; Ragweed plant response rating (0 to 100 scale) ([14]; 125 g ai/ha): 0; Ragweed plant response rating (0 to 100 scale) ([14]; 500 g ai/ha): 20; Ryegrass, Italian plant response rating (0 to 100 scale) ([15]; 125 g ai/ha): 0; Ryegrass, Italian plant response rating (0 to 100 scale) ([15]; 500 g ai/ha): 0; Wheat plant response rating (0 to 100 scale) ([16]; 125 g ai/ha): 0; Wheat plant response rating (0 to 100 scale) ([16]; 500 g ai/ha): 0; Plant response rating, Flood, Barnyardgrass [17]: 0; Plant response rating, Flood, Ducksalad [18]: 40; Plant response rating, Flood, Rice [19]: 0; Plant response rating, Flood, Sedge, Umbrella [20]: 0
3 | CCc1ccc(C2Cn3c(C)nnc3C2C(=O)Nc2cccc(F)c2C)cc1 (centres unmarked) [Compound 9] | 40 | 70 | 60 | 90 | 0 | 0 | 0 | 0 | 0 | 0 | 0 | 30 | 70 | 20 | 70 | 0 | 0 | 0 | 50 | 0 | Kochia plant response rating (0 to 100 scale) ([3]; 500 g ai/ha): 0; Galium plant response rating (0 to 100 scale) ([11]; 500 g ai/ha): 20; Kochia plant response rating (0 to 100 scale) ([12]; 125 g ai/ha): 0; Kochia plant response rating (0 to 100 scale) ([12]; 500 g ai/ha): 0; Pigweed plant response rating (0 to 100 scale) ([13]; 125 g ai/ha): 0; Pigweed plant response rating (0 to 100 scale) ([13]; 500 g ai/ha): 0; Ragweed plant response rating (0 to 100 scale) ([14]; 125 g ai/ha): 0; Ragweed plant response rating (0 to 100 scale) ([14]; 500 g ai/ha): 0; Ryegrass, Italian plant response rating (0 to 100 scale) ([15]; 125 g ai/ha): 0; Ryegrass, Italian plant response rating (0 to 100 scale) ([15]; 500 g ai/ha): 20; Wheat plant response rating (0 to 100 scale) ([16]; 125 g ai/ha): 0; Wheat plant response rating (0 to 100 scale) ([16]; 500 g ai/ha): 0; Plant response rating, Flood, Barnyardgrass [17]: 20; Plant response rating, Flood, Ducksalad [18]: 75; Plant response rating, Flood, Rice [19]: 15; Plant response rating, Flood, Sedge, Umbrella [20]: 0
